# In patent US9808445B2, “Factor IXa inhibitors” (Merck Sharp & Dohme Corp., priority 2014, dated 2017):
# Target: human factor IXa (Homo sapiens (Human), UniProt P00740)
# Experiment: Determination of inhibitory activity against factor IXa (fluorogenic substrate SPECTROFLUOR FIXa)
# Format: biochemical
# Conditions: Factor IXa enzyme assay human
# Description: Inhibitory activity against factor IXa was tested using the substrate SPECTROFLUOR FIXa (american diagnostica inc.; 500 West Avenue, Stamford, Conn. 06902 USA; Pr. No. 299F) and human factor IXa (american diagnostica inc.; Pr. No. 449b). Test substances were dissolved in buffer A (50 mM α,α,α-tris (hydroxymethyl) methylamine (Tris), 100 mM NaCl, 5 mM CaCl2, 15% (v/v) ethylene glycol, pH 8.0) were mixed with factor IXa (0.1 μg/ml final concentration). The enzyme reaction was started by addition of SPECTROFLUOR FIXa (100 μM final concentration). After incubation for 60 minutes at room temperature, the reaction was stopped by the addition of 20% (v/v) acetic acid solution, and then the fluorescence value was measured (Excitation Wavelength: 355 nm, Emission Wavelength; 460 nm) in a microtiter plate reader (ARVO 1420 Multilabel Counter; PerkinElmer).
# The IC50 was calculated from a dilution series of the test substance with the aid of the software, Symyx Assay Explorer (Symyx Technologies, Inc.).
# human factor IXa, sequence (P00740 227-461): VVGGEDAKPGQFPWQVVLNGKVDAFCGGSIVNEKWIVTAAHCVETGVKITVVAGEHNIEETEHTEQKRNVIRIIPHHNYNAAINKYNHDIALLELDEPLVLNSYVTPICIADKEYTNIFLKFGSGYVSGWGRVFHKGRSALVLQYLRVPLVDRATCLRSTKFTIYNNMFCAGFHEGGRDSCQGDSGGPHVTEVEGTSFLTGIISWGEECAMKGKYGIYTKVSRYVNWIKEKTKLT
# human factor IXa, sequence (P00740 47-191 partner): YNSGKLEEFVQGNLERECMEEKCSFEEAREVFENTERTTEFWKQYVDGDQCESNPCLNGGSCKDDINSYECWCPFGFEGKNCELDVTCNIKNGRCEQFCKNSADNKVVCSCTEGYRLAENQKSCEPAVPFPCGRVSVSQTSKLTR
row,Structure (SMILES),IC50 [nM]
1,"Nc1noc2c(N3C[C@@H]4CC[C@H]3[C@@H]4NC(=O)c3ccc(-c4ccnnc4)cc3Cl)ncc(Cl)c12 (relative stereo) [Example 12, N-((1S*,4S*,7R*)-2-(3-Amino-4-chloroisoxazolo[5,4-c]pyridin-7-yl)-2-azabicyclo[2.2.1]heptan-7-yl)-2-chloro-4-(pyridazin-4-yl)benzamide]",≤ 100
2,"Nc1noc2c(N3C[C@@H]4CC[C@H]3[C@@H]4NC(=O)c3ccc(-n4cnc(CCO)c4)cc3Cl)ncc(Cl)c12 (relative stereo) [Example 14, N-((1S*,4S*,7R*)-2-(3-Amino-4-chloroisoxazolo[5,4-c]pyridin-7-yl)-2-azabicyclo[2.2.1]heptan-7-yl)-2-chloro-4-(4-(2-hydroxyethyl)-1H-imidazol-1-yl)benzamide]",≤ 100
3,"Nc1noc2c(N3C[C@@H]4CC[C@H]3[C@@H]4NC(=O)c3ccc(-n4cnc5ccccc54)cc3Cl)ncc(Cl)c12 (relative stereo) [Example 21, N-((1S*,4S*,7R*)-2-(3-Amino-4-chloroisoxazolo[5,4-c]pyridin-7-yl)-2-azabicyclo[2.2.1]heptan-7-yl)-4-(1H-benzo[d]imidazol-1-yl)-2-chlorobenzamide]",≤ 100
4,"Nc1noc2c(N3C[C@@H]4CC[C@H]3[C@@H]4NC(=O)c3ccc(-c4cncnc4)cc3Cl)ncc(Cl)c12 (relative stereo) [Example 9, N-((1S*,4S*,7R*)-2-(3-Amino-4-chloroisoxazolo[5,4-c]pyridin-7-yl)-2-azabicyclo[2.2.1]heptan-7-yl)-2-chloro-4-(pyrimidin-5-yl)benzamide]",≤ 100
5,"Nc1noc2c(N3C[C@@H]4CC[C@H]3[C@@H]4NC(=O)c3ccc(-n4cnnc4)cc3Cl)cccc12 (relative stereo) [Example 1, N-((1S*,4S*, 7R*)-2-(3-Aminobenzo[d]isoxazol-7-yl)-2-azabicyclo[2.2.1]heptan-7-yl)-2-chloro-4-(4H-1,2,4-triazol-4-yl)benzamide]",≤ 100
6,"Cn1cc(-c2ccc(C(=O)N[C@@H]3[C@H]4CC[C@@H]3N(c3nc(C#N)cc5c(N)noc35)C4)c(Cl)c2)ccc1=O (relative stereo) [Example 25, N-((1S*,4S*,7R*)-2-(3-Amino-5-cyanoisoxazolo[5,4-c]pyridin-7-yl)-2-azabicyclo[2.2.1]heptan-7-yl)-2-chloro-4-(1-methyl-6-oxo-1,6-dihydropyridin-3-yl)benzamide]",≤ 100
7,"Cc1cc2c(N)noc2c(N2CC3CCC2C3NC(=O)c2ccc(-n3cnc(C)n3)cc2Cl)n1 (single isomer, unassigned) [Example 11.2, N-((1S*,4S*,7R*)-2-(3-Amino-5-methylisoxazolo[5,4-c]pyridin-7-yl)-2-azabicyclo[2.2.1]heptan-7-yl)-2-chloro-4-(3-methyl-1H-1,2,4-triazol-1-yl)benzamide]",≤ 100
8,"Cc1cc2c(N)noc2c(N2C[C@@H]3CC[C@H]2[C@@H]3NC(=O)c2ccc(-c3cnc(C#N)nc3)cc2Cl)n1 (relative stereo) [Example 17, N-((1S*,4S*,7R*)-2-(3-Amino-5-methylisoxazolo[5,4-c]pyridin-7-yl)-2-azabicyclo[2.2.1]heptan-7-yl)-2-chloro-4-(2-cyanopyrimidin-5-yl)benzamide]",≤ 100
9,"Nc1noc2c(N3C[C@@H]4CC[C@H]3[C@@H]4NC(=O)c3ccc(-n4cnnc4)cc3)ncc(Cl)c12 (relative stereo) [Example 13, N-((1S*,4S*,7R*)-2-(3-Amino-4-chloroisoxazolo[5,4-c]pyridin-7-yl)-2-azabicyclo[2.2.1]heptan-7-yl)-4-(4H-1,2,4-triazol-4-yl)benzamide]",≤ 100
10,"Cc1cc2c(N)noc2c(N2C[C@@H]3CC[C@H]2[C@@H]3NC(=O)c2ccc(-n3cnnc3C(F)(F)F)cc2Cl)n1 (relative stereo) [Example 26, N-((1S*,4S*,7R*)-2-(3-Amino-5-methylisoxazolo[5,4-c]pyridin-7-yl)-2-azabicyclo[2.2.1]heptan-7-yl)-2-chloro-4-(3-(trifluoromethyl)-4H-1,2,4-triazol-4-yl)benzamide]",≤ 100
11,"Nc1noc2c(N3C[C@@H]4CC[C@H]3[C@@H]4NC(=O)c3ccc(-c4ccc(=O)n(C(F)F)c4)cc3Cl)ncc(Cl)c12 (relative stereo) [Example 19, N-((1S*,4S*,7R*)-2-(3-Amino-4-chloroisoxazolo[5,4-c]pyridin-7-yl)-2-azabicyclo[2.2.1]heptan-7-yl)-2-chloro-4-(1-(difluoromethyl)-6-oxo-1,6-dihydropyridin-3-yl)benzamide]",≤ 100
12,"Nc1noc2c(N3C[C@@H]4CC[C@H]3[C@@H]4NC(=O)c3ccc(-n4cnnc4C(F)F)cc3Cl)ncc(Cl)c12 (relative stereo) [Example 16, N-((1S*,4S*,7R*)-2-(3-Amino-4-chloroisoxazolo[5,4-c]pyridin-7-yl)-2-azabicyclo[2.2.1]heptan-7-yl)-2-chloro-4-(3-(difluoromethyl)-4H-1,2,4-triazol-4-yl)benzamide]",≤ 100
13,"Cc1cc2c(N)noc2c(N2CC3CCC2C3NC(=O)c2ccc(-n3cnc(C)n3)cc2Cl)n1 (single isomer, unassigned) [Example 11.1, N-((1S*,4S*,7R*)-2-(3-Amino-5-methylisoxazolo[5,4-c]pyridin-7-yl)-2-azabicyclo[2.2.1]heptan-7-yl)-2-chloro-4-(3-methyl-1H-1,2,4-triazol-1-yl)benzamide]",100 to 1000
14,"COc1ncc(-c2ccc(C(=O)N[C@@H]3[C@H]4CC[C@@H]3N(c3ncc(Cl)c5c(N)noc35)C4)c(Cl)c2)cn1 (relative stereo) [Example 10, N-((1S*,4S*,7R*)-2-(3-Amino-4-chloroisoxazolo[5,4-c]pyridin-7-yl)-2-azabicyclo[2.2.1]heptan-7-yl)-2-chloro-4-(2-methoxypyrimidin-5-yl)benzamide]",≤ 100
15,"Nc1noc2c(N3C[C@@H]4CC[C@H]3[C@@H]4NC(=O)c3ccc(-c4ccc5nncn5c4)cc3Cl)ncc(Cl)c12 (relative stereo) [Example 20, 4-([1,2,4]Triazolo[4,3-a]pyridin-6-yl)-N-((1S*,4S*,7R*)-2-(3-amino-4-chloroisoxazolo[5,4-c]pyridin-7-yl)-2-azabicyclo[2.2.1]heptan-7-yl)-2-chlorobenzamide]",≤ 100
16,"Cc1ncn(-c2ccc(C(=O)NC3C4CCC3N(c3ncc(Cl)c5c(N)noc35)C4)c(Cl)c2)n1 (single isomer, unassigned) [Example 7.1, N-((1S*,4S*,7R*)-2-(3-Amino-4-chloroisoxazolo[5,4-c]pyridin-7-yl)-2-azabicyclo[2.2.1]heptan-7-yl)-2-chloro-4-(3-methyl-1H-1,2,4-triazol-1-yl)benzamide]",≤ 100
17,"Cc1cc(N2C[C@@H]3CC[C@H]2[C@@H]3NC(=O)c2c(Cl)cc(-n3cnc(C)n3)cc2Cl)c2onc(N)c2c1 (relative stereo) [Example 3, N-((1S*,4S*,7R*)-2-(3-Amino-5-methylbenzo[d]isoxazol-7-yl)-2-azabicyclo[2.2.1]heptan-7-yl)-2,6-dichloro-4-(3-methyl-1H-1,2,4-triazol-1-yl)benzamide]",≤ 100
18,"Cn1nc(-c2ccc(C(=O)N[C@@H]3[C@H]4CC[C@@H]3N(c3ncc(Cl)c5c(N)noc35)C4)c(Cl)c2)ccc1=O (relative stereo) [Example 24, N-((1S*,4S*,7R*)-2-(3-Amino-4-chloroisoxazolo[5,4-c]pyridin-7-yl)-2-azabicyclo[2.2.1]heptan-7-yl)-2-chloro-4-(1-methyl-6-oxo-1,6-dihydropyridazin-3-yl)benzamide]",≤ 100
19,"Nc1noc2c(N3CC4CCC3C4NC(=O)c3ccc(-n4cncn4)cc3Cl)ncc(Cl)c12 (single isomer, unassigned) [Example 8.1, N-((1S*,4S*,7R*)-2-(3-Amino-4-chloroisoxazolo[5,4-c]pyridin-7-yl)-2-azabicyclo[2.2.1]heptan-7-yl)-2-chloro-4-(1H-1,2,4-triazol-1-yl)benzamide]",≤ 100
20,"Cn1ncn(-c2ccc(C(=O)N[C@@H]3[C@H]4CC[C@@H]3N(c3ncc(Cl)c5c(N)noc35)C4)c(Cl)c2)c1=O (relative stereo) [Example 28, N-((1S*,4S*,7R*)-2-(3-Amino-4-chloroisoxazolo[5,4-c]pyridin-7-yl)-2-azabicyclo[2.2.1]heptan-7-yl)-2-chloro-4-(1-methyl-5-oxo-1,5-dihydro-4H-1,2,4-triazol-4-yl)benzamide]",≤ 100
21,"Cc1cc2c(N)noc2c(N2C[C@@H]3CC[C@H]2[C@@H]3NC(=O)c2ccc(-n3cc(CCO)nn3)cc2Cl)n1 (relative stereo) [Example 15, N-((1S*,4S*,7R*)-2-(3-Amino-5-methylisoxazolo[5,4-c]pyridin-7-yl)-2-azabicyclo[2.2.1]heptan-7-yl)-2-chloro-4-(4-(2-hydroxyethyl)-1H-1,2,3-triazol-1-yl)benzamide]",≤ 100
22,"Cc1ncn(-c2ccc(C(=O)NC3C4CCC3N(c3ncc(Cl)c5c(N)noc35)C4)c(Cl)c2)n1 (single isomer, unassigned) [Example 7.2, N-((1S*,4S*,7R*)-2-(3-Amino-4-chloroisoxazolo[5,4-c]pyridin-7-yl)-2-azabicyclo[2.2.1]heptan-7-yl)-2-chloro-4-(3-methyl-1H-1,2,4-triazol-1-yl)benzamide]",100 to 1000
23,"Cc1ncn(-c2ccc(C(=O)N[C@@H]3[C@H]4CC[C@@H]3N(c3cc(Cl)cc5c(N)noc35)C4)c(Cl)c2)n1 (relative stereo) [Example 4, N-((1S*,4S*,7R*)-2-(3-Amino-5-chlorobenzo[d]isoxazol-7-yl)-2-azabicyclo[2.2.1]heptan-7-yl)-2-chloro-4-(3-methyl-1H-1,2,4-triazol-1-yl)benzamide]",≤ 100
